Reference: paper PMC12356528, “Modular Synthetic Platform for the Elaboration of Fragments in Three Dimensions for Fragment-Based Drug Discovery” (Journal of the American Chemical Society, 2025)
Values after ≈ are worked out from the molar mass of the structure shown. Where two headings read alike, the source gives them in different places.

Legend:
[1] = DMPK Wave1: aqueous solubility; format: physicochemical
[2] = DMPK Wave1: metabolic stability in rat hepatocytes; format: in vitro ADME; details: rat hepatocytes (RH)
[3] = DMPK Wave1: lipophilicity (measured logD); format: physicochemical
[4] = DMPK Wave1: metabolic stability in human liver microsomes; format: in vitro ADME; details: human liver microsomes (HLM)

solubility [1]	metabolic stability (in words) [2]	logD [3]	metabolic stability (in words) [4]	solubility ([1]; aqueous)	SMILES
49 µM (≈ 18.9 µg/mL)	lower metabolic stability	3.6	lower metabolic stability	–	Cc1noc(C)c1S(=O)(=O)N1CCC2(CC1)CC2c1cnc2[nH]ccc2c1 (stereo not drawn) [Compound 78]
100 µM (≈ 36.1 µg/mL)	lower metabolic stability	3.1	lower metabolic stability	–	COc1cc([C@H]2[C@@H]3CN(C(=O)Cc4c[nH]c5ccccc45)CC[C@@H]32)ccn1 [Compound 81]
887 µM (≈ 274 µg/mL)	good metabolic stability	0.1	good metabolic stability	–	c1ncc(C2CC23CCN(c2ccc4c(c2)OCO4)CC3)cn1 (stereo not drawn) [Compound 82]
881 µM (≈ 211 µg/mL)	–	-0.4	–	–	CS(=O)(=O)N1CCC2CC21c1cncnc1 (stereo not drawn) [Compound 86]
931 µM (≈ 249 µg/mL)	–	0.2	–	–	CS(=O)(=O)N1CCC2(CC1)CC2c1cncnc1 (stereo not drawn) [Compound 87]
913 µM (≈ 218 µg/mL)	–	-0.6	–	–	CS(=O)(=O)N1CC2(CC2c2cncnc2)C1 (stereo not drawn) [Compound 88]
–	–	0.1	–	823 µM (≈ 208 µg/mL)	CS(=O)(=O)N1CCC[C@@H]2[C@@H](c3cncnc3)[C@@H]21 [Compound 94]
–	–	1.6	–	996 µM (≈ 284 µg/mL)	C=CC(=O)N1C[C@H](Nc2ncnc3[nH]ccc23)CC[C@@H]1C [Ritlecitinib, 1-((2S,5R)-5-((7H-Pyrrolo[2,3-d]pyrimidin-4-yl)amino)-2-methylpiperidin-1-yl)prop-2-en-1-one, reference compound]

SMILES	solubility [1]	metabolic stability (in words) [2]	logD [3]	metabolic stability (in words) [4]	solubility ([1]; aqueous)
CS(=O)(=O)N1C2CCC1CC1(C2)CC1c1cncnc1 (stereo not drawn) [Compound 91]	> 981 µM	–	0.5	–	–
